Structures can show the parent of a compound that is named as a salt.
Compound | melting point
CCc1nnsc1C(=O)O [compound 178, t-butylammonium 4-ethyl-1,2,3-thiadiazole-5-carboxylate] | 105 to 107 °C
CCc1nnsc1C(=O)O (as salt: sodium) [compound 176, sodium 4-ethyl-1,2,3-thiadiazole-5-carboxylate] | 250 °C (dec.)

Reference: US6521649B1 (priority 1995, dated 2003)
